From patent US10632134B2, “Cannabinoid receptor modulators” (Arena Pharmaceuticals, Inc., priority 2011, dated 2020)

How the values were obtained:
[1] = Dynamic moisture-sorption (DMS) analysis; assay type: physicochemical
Experimental: Example 9: Dynamic Moisture-Sorption Analysis
A dynamic moisture-sorption (DMS) study was conducted using a dynamic moisture-sorption analyzer, VTI Corporation, SGA-100. The instrument was calibrated using polyvinyl pyrrolidone (PVP) and NaCl. Samples were prepared for DMS analysis by placing 5 mg to 20 mg of a sample in a tared sample holder. The sample was placed on the hang-down wire of the VTI balance. A drying step was run, typically at 40° C. and 0.5-1% RH for 1 h. The isotherm temperature is 25° C. Defined % RH holds typically ranged from 10% RH to 90% RH, with intervals of 10 to 20% RII. A % weight change smaller than 0.010% over 10 min, or up to 2 h, whichever occurred first, was required before continuing to the next % RH hold. The water content of the sample equilibrated as described above was determined at each % RH hold.

[2] = system: Paclitaxel-induced allodynia; assay: Paclitaxel-induced allodynia in Sprague Dawley rats (von Frey assay); assay type: in vivo
Experimental: Example 5: Paclitaxel-induced Allodynia in Sprague Dawley Rats
Therapy however is often associated with the unwanted side affects of painful peripheral neuropathy.
Male Sprague Dawley rats [200-250 g] (Harlan Laboratories Inc., Livermore, Calif.) were housed three per cage and maintained in a humidity-controlled (40-60%) and temperature-controlled (68-72° F.) facility on a 12 h:12 h light/dark cycle (lights on at 6:30 am) with free access to food (Harlan Teklad, Orange, Calif., Rodent Diet 8604) and water. Rats were allowed one week of habituation to the animal facility before starting treatment.
Rats were treated intraperitoneally, with 2 mg/kg of paclitaxel (Sigma Aldrich, Saint Louis, Mo.) in 10% Cremophor vehicle (500 μL) on days 0, 2, 4, and 6.
Tactile allodynia was tested using von Frey filaments. Briefly, the von Frey assay was performed using the standardized up down method with von Frey filaments, that determine the tactile sensitivity of the paw. By applying the increasingly or decreasingly thicker filaments to the paw in a logarithmic scale of actual force, a linear scale of perceived intensity is determined.
Eight days after the start of paclitaxel dosing, a baseline measurement (von Frey assay) was performed prior to dosing of compounds. […] As a positive control, rats were dosed intraperitoneally with 100 mg/kg gabapentin in water. […]

Weight (% Change) ([1]; Sample RH […], elapsed time 46.6 min, 25.46)	Weight (% Change) ([1]; adsorption, Sample RH 29.94%, elapsed time 71.4 min)	Weight (% Change) ([1]; adsorption, Sample RH 49.86%, elapsed time 91.1 min)	Weight (% Change) ([1]; adsorption, Sample RH 69.77%, elapsed time 111.2 min)	Weight (% Change) ([1]; adsorption, Sample RH 79.70%, elapsed time 129.1 min)	Weight (% Change) ([1]; adsorption, Sample RH 89.72%, elapsed time 160.1 min)	Weight (% Change) ([1]; desorption, Sample RH 10.06%, elapsed time 234.4 min)	Weight (% Change) ([1]; desorption, Sample RH 29.99%, elapsed time 218.6 min)	Weight (% Change) ([1]; desorption, Sample RH 50.07%, elapsed time 200.1 min)	Weight (% Change) ([1]; desorption, Sample RH 70.11%, elapsed time 180.1 min)	SMILES	DMS weight change ([1]; adsorption/desorption isotherm, from about 10% relative humidity (RH) to about 90% RH)	DMS weight change ([1]; after a 10% RH to 90% RH back to 10% RH cycle)	paw withdrawal threshold (PWT) ([2]; 10 mg/kg orally in PEG400, paclitaxel treated rats, von Frey assay 30, 60 and 180 minutes after dosing, in comparison with vehicle and gabapentin)	time of maximum efficacy post-dosing ([2]; 10 mg/kg orally, paclitaxel treated rats, von Frey assay time course) [h]
0	0.151	0.282	0.482	0.581	0.762	0.080	0.181	0.364	0.526	CC(C)(C)[C@@H](CO)NC(=O)c1nn(-c2c[n+]([O-])ccn2)c2c1C[C@@H]1C[C@H]21 [Compound 699 (Anhydrous Form), (1aS,5aS)-2-(4-Oxy-pyrazin-2-yl)-1a,2,5,5a-tetrahydro-1H-2,3-diaza-cyclopropa[a]pentalene-4-carboxylic Acid ((S)-1-Hydroxymethyl-2,2-dimethyl-propyl)-amide]	1.0% or less weight change from about 10% relative humidity	(RH) to about 90% RH; and about 0.1% or less weight change		
										CC(C)(CO)NC(=O)c1nn(-c2ccc(F)cc2F)c2c1C[C@H]1C[C@@H]21 [Compound 493, (1aR,5aR)-2-(2,4-Difluoro-phenyl)-1a,2,5,5a-tetrahydro-1H-2,3-diaza-cyclopropa[a]pentalene-4-carboxylic Acid (2-Hydroxy-1,1-dimethyl-ethyl)-amide]			increase	1
